“And” between values parts separate entries of the source, which are not always exact repeats. Identical values can stand only once.
Tests used:
[1] = Metabolic stability in human liver microsomes; assay type: in vitro ADME; conditions: n = 2
Experimental: A solution of the test compounds in phosphate buffer solution (1 µM) was incubated in pooled human and mouse liver microsomes (0.5 mg/ml) for 0, 5, 20, 30, 45 and 60 min at 37 °C in the presence and absence of an NADPH regeneration system (NRS). The tests were carried out by TCGLS, Kolkata, India. The reaction was terminated with the addition of ice-cold acetonitrile, containing a […] standard, at designated time points. The sample was centrifuged (3300 × g) for 20 min at 20 °C and the supernatant was diluted by half in water and then analyzed by LC-MS/MS. The % parent compound remaining, half-life (T1/2) and clearance (CLint,app) were calculated using standard methodology. The experiment was carried out in duplicate. Verapamil, diltiazem, phenacetin and imipramine were used as reference standards.

[2] = Stability in rat hepatocytes; assay type: in vitro ADME
[3] = tested on: Dd2 parasites selected with OSM-S-106; experiment: Sensitivity of ramp-up OSM-S-106-selected Dd2 clones; assay type: cell-based; conditions: Plasmodium falciparum
[4] = tested on: protein translation in P. falciparum trophozoites (Cam3.II-rev); experiment: Protein translation assay (OPP incorporation); assay type: cell-based, Plasmodium falciparum; conditions: for Translation: 6 h exposure, individual experiments, 0 nM = 100
Experimental: O-propargyl-puromycin (OPP) (Abcam) was added to the culture and incubated for a further 2 h. Parasites were washed three times in 1 × PBS (Gibco™) and fixed with 4% formaldehyde (Polysciences) and 0.02% glutaraldehyde (Sigma) in 1 × PBS for 20 min at room temperature (RT). Cells were washed two times with buffer A (3% human serum in 1 × PBS). Pellets were permeabilized in buffer A containing 0.05% Triton® X-100 and washed two times with buffer A. Fixed-permeabilized cells were subjected to copper-catalyzed azide–alkyne cycloaddition (CuAAC) at 37 °C for 1 h in the presence of 0.1 mM CuSO4, 0.5 mM THPTA, 5 mM sodium ascorbate, and 0.1 μM Alexa Fluor 488 azide in buffer A. Pellets were washed four times in buffer A and resuspended in buffer A containing 25 μg/ml propidium iodide (Invitrogen™). Cells were interrogated by flow cytometry (FACS Canto II; BD Biosciences, San Jose, CA) using FITC and Cy™5.5 channels.

[5] = tested on: P. falciparum Cam3.II-rev; experiment: Drug pulse (6 h) viability assay; assay type: cell-based, Plasmodium falciparum
Experimental: Viability was assessed in the second cycle by flow cytometry, following labeling with 2 μM Syto-61 (Thermo Fisher Scientific)[48],[49]. Viability represents the parasitemia normalized to untreated and “kill” controls that were treated with 2 μM dihydroartemisinin (DHA; Sigma-Aldrich) for 48–72 h. For drug pulse assays, tightly synchronized Cam3.II-rev[50] parasites (1–1.5% parasitemia, 0.2% final hematocrit) were added to the plates and incubated for 6 h. Drugs were removed and the parasitemia assessed in the trophozoite stage of the next cycle.

[6] = tested on: PfAsnRS; experiment: LC-MS of Asn-OSM-S-106 adduct generated by recombinant PfAsnRS; assay type: biochemical, Plasmodium falciparum; conditions: 1 μM PfAsnRS, 10 μM OSM-S-106, 1 h, 37 °C; individual experiments
Experimental: The reaction buffer consists of 100 mM HEPES pH 7.5 (KOH), 160 mM KCl, 3.5 mM MgCl2, 1 mM DTT. The mixture was incubated at 37 °C for 1 h. After that, an equal volume of 8 M urea was added to the mixture. Finally, trifluoroacetic acid was added to a final concentration of 1%. The sample was centrifuged at 15,000 × g for 10 min and the supernatant was used for LCMS analysis. […] Quantification of the conjugates was done using Skyline (version 21.1.0.278).
Samples were analyzed by reversed-phase ultra-high-performance liquid chromatography (UHPLC) coupled to tandem mass spectrometry (MS/MS) employing a Vanquish UHPLC linked to an Orbitrap Fusion Lumos mass spectrometer (Thermo Fisher Scientific, San Jose, CA, USA) operated in positive ion mode. Solvent A was 0.1% formic acid/10 mM ammonium acetate in water and solvent B was 0.1% formic acid/10 mM ammonium acetate in acetonitrile. […] Finally, the percentage of solvent B was decreased to 0% in 0.1 min and maintained for 3.9 min.
MS experiments were performed using a Heated Electrospray Ionization (HESI) source. The spray voltage, flow rate of sheath, auxiliary and sweep gases were 3.5 kV, 20, 6, and 1 ‘arbitrary’ unit(s), respectively. The ion transfer tube and vaporizer temperatures were maintained at 350 °C and 400 °C, respectively, and the S-Lens RF level was set at 50%. […]

[7] = Solid state stability under ambient conditions; assay type: physicochemical

With Nc1ncnc2cc(-c3cccc(S(N)(=O)=O)c3)sc12 [OSM-S-106] the Degradation half-life [1] was 395/619, the “stability during incubation with rat hepatocytes” value [2] was “stable” and the IC50 ([3]; DD2, parasite Dd2-B2-2 (parent)) was 79 ± 12 nM. The IC50 ([3]; DD2, parasite Dd2-B2-3 (parent)) was 80 nM, the IC50 ([3]; DD2, parasite Dd2-OSM-2A6) was 700 nM and the IC50 ([3]; DD2, parasite Dd2-OSM-2A9) was 320 nM. It also gave an IC50 ([3]; DD2, parasite Dd2-OSM-2B2) of 700 nM, an IC50 ([3]; DD2, parasite Dd2-OSM-2D6) of 780 nM and an IC50 ([3]; DD2, parasite Dd2-OSM-3E5) of 160 nM. For the same compound, the IC50 ([3]; DD2, parasite Dd2-OSM-3H7) was 220 nM, the Translation ([4]; 78.1 nM) was 88.2194 and 68.5604 and 78.7165 and the Translation ([4]; 156.3 nM) was 70.9569 and 76.7178 and 73.7965. For the same compound, the Translation ([4]; 312.5 nM) was 55.5714 and 55.4781 and 55.6229, the Translation ([4]; 625 nM) was 47.9476 and 51.4282 and 41.085 and the Translation ([4]; 1250 nM) was 31.8914 and 46.8967 and 33.6793. The Translation ([4]; 2500 nM) was 20.1284 and 25.4073 and 16.4444, the Translation ([4]; 5000 nM) was 10.3606 and 16.5158 and 20.3119 and the Translation ([4]; 10000 nM) was 7.683 and 13.3898 and 13.8481. For the same compound, the Translation ([4]; 20000 nM) was 7.414 and 4.917 and 2.903, the Translation ([4]; 40000 nM) was 7.804 and 8.474 and 8.853 and the IC50 ([4]; Plasmodium falciparum, read-out: IC50 (Translation)) was 510 nM. The Viability ([5]; 78.1 nM, 6 h pulse, individual experiments, 0 nM = 100) was 93.5356 and 88.7263, the Viability ([5]; 156.3 nM, 6 h pulse, individual experiments, 0 nM = 100) was 81.4036 and 83.8337 and the Viability ([5]; 312.5 nM, 6 h pulse, individual experiments, 0 nM = 100) was 81.9846 and 75.9519. The Viability ([5]; 625 nM, 6 h pulse, individual experiments, 0 nM = 100) was 76.0359 and 75.5937, the Viability ([5]; 1250 nM, 6 h pulse, individual experiments, 0 nM = 100) was 77.505 and 78.8039 and the Viability ([5]; 2500 nM, 6 h pulse, individual experiments, 0 nM = 100) was 63.2365 and 57.9681. The Viability ([5]; 5000 nM, 6 h pulse, individual experiments, 0 nM = 100) was 58.8326 and 46.673 and 10.7308, the Viability ([5]; 10000 nM, 6 h pulse, individual experiments, 0 nM = 100) was 6.448 and 2.352 and 1.857 and the Viability ([5]; 20000 nM, 6 h pulse, individual experiments, 0 nM = 100) was 0 and 0.3604 and 0.5288. The Viability ([5]; 40000 nM, 6 h pulse, individual experiments, 0 nM = 100) was 1.032 and 0 (2×), the viability at 0.0781 µM ([5]; Plasmodium falciparum, 6 h, 78.1 nM, 6 h pulse, individual experiments, 0 nM = 100) was 77.5% and the viability at 0.1563 µM ([5]; Plasmodium falciparum, 6 h, 156.3 nM, 6 h pulse, individual experiments, 0 nM = 100) was 80.2%. The viability at 0.3125 µM ([5]; Plasmodium falciparum, 6 h, 312.5 nM, 6 h pulse, individual experiments, 0 nM = 100) was 81.3%, the viability at 0.625 µM ([5]; Plasmodium falciparum, 6 h, 625 nM, 6 h pulse, individual experiments, 0 nM = 100) was 79.9% and the viability at 1.25 µM ([5]; Plasmodium falciparum, 6 h, 1250 nM, 6 h pulse, individual experiments, 0 nM = 100) was 79.8%. For the same compound, the viability at […] ([5]; Plasmodium falciparum, 6 h, 2500 nM, 6 h pulse, individual experiments, 0 nM = 100) was 77.1%, the IC50 ([5]; Plasmodium falciparum, 6 h, read-out: IC50 (Viability)) was 4700 nM and the “MS peak area (Asn-OSM-S-106 adduct)” value [6] was 50050244 and 46285516 and 50264000 and 46572204. The “stability in the solid state” value [7] was “stable in the solid state”.
